Laboratory results published in patent US20240287048A1, “SUBSTITUTED ACYL SULFONAMIDES FOR TREATING CANCER” (The Broad Institute, Inc., priority 2020, published 2024).

What was measured:
ZR-75-1 cells = assay: Proliferation assay in ZR-75-1 cells; type: cell-based; details: Homo sapiens, 144 h, Alamar Blue, read-out: ZR75-1 proliferation assay, EC50[M] (arithmetic mean)
Text: (§1) For compound characterization cell survival assays were routinely run in two cell lines. ZR-75-1 is a breast carcinoma cell line containing a focal KAT6A amplification and high KAT6A protein expression. Proliferation of this cell line is inhibited upon treatment with KAT6A inhibitors. As a negative control cell line MDA-MB-436 were used. These cells carry a […] deletion of the KAT6A gene, have a low KAT6A protein expression and are not growth inhibited upon treatment with KAT6A inhibitors.
(§2) For measurements cell lines were plated at the below indicated concentration per […] in 96-well plates in a humidified incubator at 37° C. and 5% CO2.
(§3) ZR-75-1 (ATCC, CRL-1500; breast carcinoma); 3000 cells per well; culture medium: RPMI 1640 (Biochrom #FG 1215) medium containing 2.5% FBS (Biochrom #S0615). LCLC-97TM1 (DSMZ, ACC 388; large cell lung carcinoma); 6000 cells per well; culture medium: RPMI 1640 (Biochrom #FG 1215) medium containing 2.5% FBS (Biochrom #S0615). MDA-MB-436 (CLS, 300278; breast adenocarcinoma); 3000 cells per well; culture medium: DMEM/Ham's F12 (Biochrom #FG 4815) medium containing 2.5% FBS (Biochrom #S0615).
(§4) Each sample was prepared as triplicate and rim wells were excluded. Plates were incubated at 37° C. and 5% CO2 for 144 h. Cell viability was measured by adding 10 μL of Alamar Blue Reagent (Invitrogen #DAL 1100) and plates were incubated for 2 h at 37° C. and 5% CO2. Fluorescence was measured at 590 nm wavelength with a Tecan Spark or Victor X3 MTP-Reader (PerkinElmer).

KAT6A = biological target: T1, KAT6A (Homo sapiens, UniProt Q92794); assay: Kat6a activity assay (TR-FRET, acetylation of biotinylated histone H4 peptide); type: biochemical; details: recombinant human His-tagged Kat6a (amino acids 194-810), 60 mins at 22° C., read-out: KAT6A-DPF/HAT domain IC50 [mol/l] (arithmetic mean)
T1 construct: Recombinant human His-tagged Kat6a protein (amino acids 194-810); His; made in house; host or cells: Baculovirus-infected Sf9 insect cells
Text: Kat6a inhibitory activities of the compounds described in the present invention were quantified using a Fluorescence Resonance Energy Transfer (TR-FRET) assay which measures acetylation of a synthetic, biotinylated Histone-H4-derived peptide by the enzyme.
Recombinant human His-tagged Kat6a protein (amino acids 194-810), was purified in-house from Baculovirus-infected insect cells (Sf9). Histone H4 peptide (amino acids 1-24, […]-VLRD-K(Btn)-amide), which was used as substrate, was synthesized by Biosyntan GmbH, Berlin, Germany. Acetyl Coenzyme A was purchased from Sigma-Aldrich (#A-2056).
(§5) Kat6a was incubated for 60 mins at 22° C. in the presence of different concentrations of test substances (0 μM, and within the range 0.01-20 μM) in assay buffer [25 mM Tris/HCl pH 8, 1 mM EGTA, 2.5 mM Glutathion, 0.02% Chicken Albumin, 0.05% Pluronic F127, 25 mM NaCl, 220 nM H4 peptide and 600 nM Acetyl Coenzyme A].
The reaction was stopped by addition of Detection Solution (25 mM HEPES pH 7.5, 0.1% BSA, 22 nM SAXL665 (Cisbio #610SAXLE), 100 μM Anacardic Acid (Enzo #ALX-270-381), 1 nM Anti-Histone H4 (ACETYL K8) Antibody (ABCAM #AB15823) and 0.5 nM Anti-Rabbit IgG Eu (Perkin Elmer #AD0083).
(§6) The fluorescence emission at 620 nm and 665 nm after excitation at 330-350 nm was measured in a TR-FRET measuring instrument, for instance a Rubystar or a Pherastar (both from BMG Lab Technologies, Offenburg, Germany) or a Viewlux (Perkin-Elmer). The ratio of the emission at 665 nm and at […] was used as indicator of the amount of acetylated peptide.
(§7) The resulting data (ratio) were normalized, taking 0% inhibition as the mean value of control measurements where all reagents were included. In this case 50 nl DMSO were used instead of compounds. […] IC50 values were determined by regression analysis based on a 4 parameter equation (minimum, maximum, ICM, Hill; Y=Max+(Min−Max)/(1+(X/ICso) Hill) using the Screener Software (Genedata).

KAT6B = biological target: T2, KAT6B (Homo sapiens, UniProt Q8WYB5); assay: Kat6b activity assay (TR-FRET, acetylation of biotinylated histone H4 peptide); type: biochemical; details: recombinant human GST-tagged Kat6b (431-end), 30 mins at 22° C., read-out: KAT6B activity assay IC50 [mol/l] (arithmetic mean)
T2 construct: fused on or other part: N-terminal GST tag
Text: Kat6b inhibitory activities of the compounds described in the present invention were quantified using a Fluorescence Resonance Energy Transfer (TR-FRET) assay which measures acetylation of a synthetic, biotinylated Histone-H4-derived peptide by the enzyme.
Recombinant human GST-tagged Kat6b protein (431-end, N-terminal GST-tag), purified from Baculovirus-infected insect cells (Sf9), was purchased from SignalChem (#K315-381BG). Histone H4 peptide (amino acids 1-24, […]-VLRD-K(Btn)-amide), which was used as substrate, was synthesized by Biosyntan GmbH, Berlin, Germany. Acetyl Coenzyme A was purchased from Sigma-Aldrich (#A-2056).
as §5, with “Kat6b was” for “Kat6a was”, “for 30” for “for 60”, “NaCl, 500” for “NaCl, 220”
The reaction was stopped by addition of Detection Solution (25 mM HEPES pH 7.5, 0.1% BSA, 22 nM SAXL665 (Cisbio #610SAXLE), 100 μM Anacardic Acid (Enzo #ALX-270-381), 1 nM Anti-Histone H4 (ACETYL K8) Antibody (ABCAM #AB15823), 0.5 nM Anti-Rabbit IgG Eu (Perkin Elmer #AD0083).
as §6, §7

[1] = test system: ESR1 transcription in MVLN cells; assay: Repression of ESR1 transcription, MVLN luciferase reporter assay; type: cell-based; details: Homo sapiens, luciferase signal after 24 h, read-out: MVLN reporter assay, IC50[M] (arithmetic mean)
Text: KAT6A controls transcription of the ESR1 gene in breast cancer cells. Compound treatment that interferes with this mechanism was quantified using MVLN cells. These cells constitutively express the ER and are stably transfected with the luciferase (LUC) reporter gene and the corresponding hormone responsive element derived from the 5′-flanking region of the Xenopus Vitellogenin A2 gene (Pons et al., 1990, Demirpense et al., 1993, Joyeux et al., 1993). The repressive effect on ERα transcription activity of a test chemical is directly related to the luciferase measured in the lysate of treated MVLN cells.
Each sample was prepared as duplicate and rim wells were excluded. For luciferase signal determination 100 μl of a 1:1 mixture of Steadylite plus (Perkin Elmer; 6016759) and assay medium was added after 24 h for 15 minutes and measured in Victor X3 (Perkin Elmer). To exclude any effects caused by cell loss during the treatment, cell density was determined using Alamar Blue (Invitrogen; DAL1100). Prior to the luciferase measurement 10 μl Alamar Blue were added to each well and the plates were incubated for 2 h in the incubator. Then fluorescence was measured with Victor X3 (Perkin Elmer) at 530 nm/590 nm.

MDA-MB-436 cells = assay: Proliferation assay in MDA-MB-436 cells (negative control cell line); type: cell-based; details: Homo sapiens, 144 h, Alamar Blue, read-out: MDA-MB-436 proliferation assay, EC50[M] (arithmetic mean)
Text: as §1, §2, §3, §4

LCLC-97TM1 cells = assay: Proliferation assay in LCLC-97TM1 cells; type: cell-based; details: Homo sapiens, 144 h, Alamar Blue, read-out: LCLC97TM1 proliferation assay, EC50[M] (arithmetic mean)
Description: as §2, §3, §4

T1 sequence (Q92794 194-810): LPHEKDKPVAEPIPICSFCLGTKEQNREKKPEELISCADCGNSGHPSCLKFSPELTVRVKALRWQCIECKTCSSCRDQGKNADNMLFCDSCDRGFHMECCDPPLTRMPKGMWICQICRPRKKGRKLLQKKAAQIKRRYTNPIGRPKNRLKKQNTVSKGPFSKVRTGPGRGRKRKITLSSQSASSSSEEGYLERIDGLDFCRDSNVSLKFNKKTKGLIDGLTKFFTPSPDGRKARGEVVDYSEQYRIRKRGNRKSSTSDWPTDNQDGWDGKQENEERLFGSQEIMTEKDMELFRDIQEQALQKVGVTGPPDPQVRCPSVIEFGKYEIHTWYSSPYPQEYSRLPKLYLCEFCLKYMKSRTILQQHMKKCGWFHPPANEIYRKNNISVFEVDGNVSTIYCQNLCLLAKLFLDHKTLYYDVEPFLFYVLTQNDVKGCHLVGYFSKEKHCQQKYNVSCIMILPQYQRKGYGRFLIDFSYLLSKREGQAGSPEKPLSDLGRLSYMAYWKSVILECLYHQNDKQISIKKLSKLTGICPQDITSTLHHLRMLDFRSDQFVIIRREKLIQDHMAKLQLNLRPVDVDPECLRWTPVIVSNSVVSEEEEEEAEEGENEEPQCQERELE
T2 sequence (Q8WYB5 723-2073 limits assumed): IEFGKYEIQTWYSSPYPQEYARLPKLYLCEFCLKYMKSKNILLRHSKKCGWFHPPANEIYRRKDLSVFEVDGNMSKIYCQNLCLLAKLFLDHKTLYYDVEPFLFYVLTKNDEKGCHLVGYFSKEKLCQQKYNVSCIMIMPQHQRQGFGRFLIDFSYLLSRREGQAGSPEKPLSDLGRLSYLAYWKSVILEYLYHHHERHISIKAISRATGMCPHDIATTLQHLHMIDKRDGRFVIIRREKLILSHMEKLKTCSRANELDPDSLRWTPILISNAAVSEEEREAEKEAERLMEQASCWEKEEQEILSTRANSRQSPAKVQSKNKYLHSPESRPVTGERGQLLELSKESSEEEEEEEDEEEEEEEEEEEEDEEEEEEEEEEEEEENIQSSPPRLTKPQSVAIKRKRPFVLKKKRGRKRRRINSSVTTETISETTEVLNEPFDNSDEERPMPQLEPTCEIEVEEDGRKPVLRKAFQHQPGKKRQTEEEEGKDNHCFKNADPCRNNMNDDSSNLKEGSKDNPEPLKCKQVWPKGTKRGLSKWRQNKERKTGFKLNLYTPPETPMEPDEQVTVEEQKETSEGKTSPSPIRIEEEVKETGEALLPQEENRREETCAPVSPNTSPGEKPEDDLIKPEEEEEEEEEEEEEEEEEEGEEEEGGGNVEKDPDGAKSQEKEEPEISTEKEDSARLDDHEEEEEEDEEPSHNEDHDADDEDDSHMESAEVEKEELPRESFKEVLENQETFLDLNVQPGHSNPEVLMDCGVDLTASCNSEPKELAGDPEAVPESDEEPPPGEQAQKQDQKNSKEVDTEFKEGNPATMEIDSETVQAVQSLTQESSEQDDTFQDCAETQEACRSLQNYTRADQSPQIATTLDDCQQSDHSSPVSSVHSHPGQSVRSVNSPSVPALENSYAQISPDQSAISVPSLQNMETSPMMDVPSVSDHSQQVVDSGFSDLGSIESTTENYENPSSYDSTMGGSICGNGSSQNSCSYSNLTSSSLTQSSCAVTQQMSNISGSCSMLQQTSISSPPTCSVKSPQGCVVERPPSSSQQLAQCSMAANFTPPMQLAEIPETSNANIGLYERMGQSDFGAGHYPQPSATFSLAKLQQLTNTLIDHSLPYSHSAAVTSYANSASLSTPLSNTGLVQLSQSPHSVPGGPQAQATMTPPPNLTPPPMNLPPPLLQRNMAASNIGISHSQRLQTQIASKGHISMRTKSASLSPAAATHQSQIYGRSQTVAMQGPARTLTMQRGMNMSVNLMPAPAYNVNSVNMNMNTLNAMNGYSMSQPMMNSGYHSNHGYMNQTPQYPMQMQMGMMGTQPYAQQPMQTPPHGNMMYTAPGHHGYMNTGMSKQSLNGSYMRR

SMILES: O=C(NS(=O)(=O)c1ccccc1OC1CC1)c1cc2c(F)cc(C3CC3)cc2o1 [Example 24, 6-Cyclopropyl-N-[2-(cyclopropyloxy)benzene-1-sulfonyl]-4-fluoro-1-benzofuran-2-carboxamide]
- EC50 (ZR-75-1 cells): 6.74e-07 M
- IC50 (KAT6A): 0.0141 µM
- IC50 (KAT6B): 0.019 µM
- IC50 [1]: 2.47e-07 M

SMILES: CCC(C)c1ccc2cc(C(=O)NS(=O)(=O)c3ccccc3-c3ccccc3)oc2c1 (stereo not drawn) [Example 27, N-([1,1′-biphenyl]-2-sulfonyl)-6-(butan-2-yl)-1-benzofuran-2-carboxamide]
- EC50 (MDA-MB-436 cells): > 2e-05 M
- EC50 (ZR-75-1 cells): > 2e-05 M
- IC50 (KAT6A): 2.03 µM
- IC50 (KAT6B): 9.21 µM
- IC50 [1]: > 2e-05 M

SMILES: CCOc1ccccc1S(=O)(=O)NC(=O)c1cc2c(OC)cc(C)cc2o1 [Example 13, N-(2-Ethoxybenzene-1-sulfonyl)-4-methoxy-6-methyl-1-benzofuran-2-carboxamide]
- EC50 (MDA-MB-436 cells): > 2e-05 M
- EC50 (ZR-75-1 cells): 1.02e-05 M
- IC50 (KAT6A): 1.13 µM
- IC50 (KAT6B): 1.73 µM
- IC50 [1]: 5.08e-06 M

SMILES: COCCc1ccc2cc(C(=O)NS(=O)(=O)c3ccccc3-c3ccccc3)oc2c1 [Example 26, N-([1,1′-biphenyl]-2-sulfonyl)-6-(2-methoxyethyl)-1-benzofuran-2-carboxamide]
- IC50 (KAT6A): 1.13 µM
- IC50 (KAT6B): 2.85 µM
- IC50 [1]: 1.56e-05 M

SMILES: COc1ccc(C(C)(C)C)cc1S(=O)(=O)NC(=O)c1cc2c(F)cc(C3CC3)cc2o1 [Example 66, N-((5-(tert-butyl)-2-methoxyphenyl)sulfonyl)-6-cyclopropyl-4-fluorobenzofuran-2-carboxamide]
- EC50 (LCLC-97TM1 cells): 2.64e-07 M
- EC50 (MDA-MB-436 cells): > 2e-05 M
- EC50 (ZR-75-1 cells): 1.76e-07 M
- IC50 (KAT6A): 0.00331 µM
- IC50 [1]: 4.96e-08 M

SMILES: CCOc1ccccc1S(=O)(=O)NC(=O)c1oc2cc(C)ccc2c1C [Example 18, N-(2-Ethoxybenzene-1-sulfonyl)-3,6-dimethyl-1-benzofuran-2-carboxamide]
- EC50 (LCLC-97TM1 cells): 1.06e-05 M
- EC50 (MDA-MB-436 cells): > 2e-05 M
- EC50 (ZR-75-1 cells): 5.01e-06 M
- IC50 (KAT6A): 0.827 µM
- IC50 [1]: 5.56e-06 M

SMILES: O=C(NS(=O)(=O)c1ccc(Cl)cc1Cl)c1cc2c(F)cc(C3CC3)cc2o1 [Example 37, 6-Cyclopropyl-N-(2,4-dichlorophenyl)sulfonyl-4-fluoro-benzofuran-2-carboxamide]
- EC50 (LCLC-97TM1 cells): > 2e-05 M
- EC50 (MDA-MB-436 cells): > 2e-05 M
- EC50 (ZR-75-1 cells): 6.28e-06 M
- IC50 (KAT6A): 0.078 µM
- IC50 [1]: 1.06e-05 M

SMILES: CN(C)c1cc(C2CC2)cc2oc(C(=O)NS(=O)(=O)c3ccccc3)cc12 [Example 42, N-(Benzenesulfonyl)-6-cyclopropyl-4-(dimethylamino)benzofuran-2-carboxamide]
- EC50 (LCLC-97TM1 cells): > 2e-05 M
- EC50 (MDA-MB-436 cells): > 2e-05 M
- EC50 (ZR-75-1 cells): > 2e-05 M
- IC50 (KAT6A): 0.417 µM
- IC50 [1]: > 2e-05 M

SMILES: Cc1ccc2cccc(S(=O)(=O)NC(=O)c3cc4c(C(F)(F)F)cc(C5CC5)cc4o3)c2n1 [Example 50, 6-Cyclopropyl-N-[(2-methyl-8-quinolyl)sulfonyl]-4-(trifluoromethyl)benzofuran-2-carboximide]
- EC50 (LCLC-97TM1 cells): > 2e-05 M
- EC50 (MDA-MB-436 cells): > 2e-05 M
- EC50 (ZR-75-1 cells): 1.38e-05 M
- IC50 (KAT6A): 0.00555 µM
- IC50 [1]: 1.95e-06 M

SMILES: O=C(NS(=O)(=O)c1ccccc1-c1ccccc1)c1cc2ccc(C(F)F)cc2o1 [Example 17, N-([1,1′-Biphenyl]-2-sulfonyl)-6-(difluoromethyl)-1-benzofuran-2-carboxamide]
- EC50 (MDA-MB-436 cells): > 2e-05 M
- EC50 (ZR-75-1 cells): 6.12e-06 M
- IC50 (KAT6A): 1.3 µM
- IC50 (KAT6B): 2.58 µM

SMILES: CN(C)c1cc(C2CC2)cc2oc(C(=O)NS(=O)(=O)c3ccccc3-c3ccccc3)cc12 [Example 44, 6-Cyclopropyl-4-(dimethylamino)-N-(2-phenylphenyl)sulfonyl-benzofuran-2-carboxamide]
- EC50 (LCLC-97TM1 cells): > 2e-05 M
- EC50 (MDA-MB-436 cells): > 2e-05 M
- EC50 (ZR-75-1 cells): 8.67e-06 M
- IC50 (KAT6A): 0.052 µM
- IC50 [1]: 1.16e-05 M

SMILES: O=C(NS(=O)(=O)c1ccccc1-c1ccccc1)c1cc2ccc(-c3ccc(F)cc3)cc2o1 [Example 1, N-([1,1′-biphenyl]-2-sulfonyl)-6-(4-fluorophenyl)-1-benzofuran-2-carboxamide]
- IC50 (KAT6A): 3.38 µM
- IC50 (KAT6B): 4.79 µM
- IC50 [1]: 1.31e-05 M

SMILES: CCOc1ccc(C(C)CC)cc1S(=O)(=O)NC(=O)c1cc2c(F)cc(C3CC3)cc2o1 (stereo not drawn) [Example 29, 6-Cyclopropyl-N-(2-ethoxy-5-sec-butyl-phenyl)sulfonyl-4-fluoro-benzofuran-2-carboxamide]
- EC50 (LCLC-97TM1 cells): 2.77e-07 M
- EC50 (MDA-MB-436 cells): > 2e-05 M
- EC50 (ZR-75-1 cells): 8.86e-08 M
- IC50 (KAT6A): 0.00184 µM
- IC50 [1]: 7.41e-08 M

SMILES: Cc1ccc2cccc(S(=O)(=O)NC(=O)c3cc4c(F)cc(C5CC5)cc4o3)c2n1 [Example 22, 6-Cyclopropyl-4-fluoro-N-(2-methylquinoline-8-sulfonyl)-1-benzofuran-2-carboxamide]
- EC50 (ZR-75-1 cells): 1.26e-06 M
- IC50 (KAT6A): 0.00948 µM
- IC50 (KAT6B): 0.0225 µM
- IC50 [1]: 2.81e-07 M
